Molecules are shown by their SMILES.

For this test, the system named is cancer cells of biological individuals diagnosed with breast cancer. The test is described as follows: evaluation of sensitivity to doxorubicin (DOX) in patient tissues, using cell colony growth rate and IC50 value. Particulars: patient tissue #2 (breast cancer).

Take `COc1cccc2c1C(=O)c1c(O)c3c(c(O)c1C2=O)C[C@@](O)(C(=O)CO)C[C@@H]3O[C@H]1C[C@H](N)[C@H](O)[C@H](C)O1` [doxorubicin]: the IC50 value entry is “low”.

The record behind these values is US20220310273A1, “SYSTEM FOR EVALUATING SENSITIVITY TO ANTI-CANCER AGENT AND A COMPUTER READABLE MEDIUM STORING PROGRAMS EXECUTING AN EVALUATING METHOD” (MBD Co., Ltd., priority 2021, published 2022).
